Test results as given in patent US4068074A, “Cephalosporin derivatives having at the 3-position of the cephem ring a heterocyclic thiomethyl group with a carboxy or sulfo group and at the 7-position of the cephem ring an α-heterocylic acylaminophenyl-acetamide group” (priority 1974, dated 1978).
≈ marks a conversion by molar mass, not a printed value. Like-named read-outs stand apart in the source and are kept apart here.

How the values were obtained:
Shigella sonnei II 37148 = assay: MIC against bacteria (Table I), strain (12); type: cell-based; conditions: II37148; (12) Shigella sonnei II 37148; read-out: MIC
Source text: (§1) Now, for illustrating the excellent pharmacological effects of the compounds of this invention, the values of MIC (γ/ml.) of the compounds against various bacteria are shown in Table 1, in which the compounds of this invention used are shown by example numbers.

Proteus vulgaris OXK US = assay: MIC against bacteria (Table I), strain (1); type: cell-based
Source text: as §1
(1) Proteus vulgaris OXK US

Staphylococcus Onuma = assay: MIC against bacteria (Table I), strain (18); type: cell-based
Source text: as §1
(18) Staphylococcus Onuma

[1] = tested on: Escherichia coli kauffmann 0-1; assay: MIC against bacteria (Table I), strain (7); type: cell-based; conditions: Escherichia coli
Source text: as §1
(7) Escherichia coli kauffmann 0-1

[2] = tested on: Pseudomonas aeruginosa 99 (Gentamycin resistant); assay: MIC against bacteria (Table I), strain (5); type: cell-based; conditions: (5) Pseudomonas aeruginosa 99 (Gentamycin resistant); read-out: MIC
Source text: as §1
(5) Pseudomonas aeruginosa 99 (Gentamycin resistant)

[3] = tested on: Micrococcus flavus ATCC 10240; assay: MIC against bacteria (Table I), strain (15); type: cell-based; conditions: ATCC10240
Source text: as §1
(15) Micrococcus flavus ATCC 10240

[4] = tested on: Klebsiella pneumoniae ATCC 10031; assay: MIC against bacteria (Table I), strain (8); type: cell-based; conditions: ATCC10031
Source text: as §1
(8) Klebsiella pneumoniae ATCC 10031

[5] = tested on: Bacillus megatherium 10778; assay: MIC against bacteria (Table I), strain (13); type: cell-based; conditions: (13) Bacillus megatherium 10778; read-out: MIC
Source text: as §1

[6] = tested on: Shigella flexneri 2a 1675; assay: MIC against bacteria (Table I), strain (11); type: cell-based; conditions: 2A1675; (11) Shigella flexneri 2a 1675; read-out: MIC
Source text: as §1

Proteus vulgaris 0X 19US = assay: MIC against bacteria (Table I), strain (2); type: cell-based; conditions: 0X19US
Source text: as §1
(2) Proteus vulgaris 0X 19US

Salmonella enteritidis = assay: MIC against bacteria (Table I), strain (10); type: cell-based; conditions: Salmonella enterica
Source text: as §1
(10) Salmonella enteritidis

[7] = tested on: Psuedomonas ovalis IMA 1002; assay: MIC against bacteria (Table I), strain (6); type: cell-based; conditions: (6) Psuedomonas ovalis IMA 1002; read-out: MIC
Source text: as §1
(6) Psuedomonas ovalis IMA 1002

[8] = tested on: Proteus mirabilis IXM OM-19; assay: MIC against bacteria (Table I), strain (3); type: cell-based; conditions: IXMOM19; (3) Proteus mirabilis IXM OM-19; read-out: MIC
Source text: as §1
(3) Proteus mirabilis IXM OM-19

[9] = tested on: Bacillus subtilis ATCC 6633; assay: MIC against bacteria (Table I), strain (14); type: cell-based; conditions: ATCC6633; (14) Bacillus subtilis ATCC 6633; read-out: MIC
Source text: as §1
(14) Bacillus subtilis ATCC 6633

[10] = tested on: Staphylococcus Shimanishi; assay: MIC against bacteria (Table I), strain (17); type: cell-based; conditions: (17) Staphylococcus Shimanishi; read-out: MIC
Source text: as §1
(17) Staphylococcus Shimanishi

Salmonella typhi H901 W = assay: MIC against bacteria (Table I), strain (9); type: cell-based; conditions: Salmonella enterica, TYPHI
Source text: as §1
(9) Salmonella typhi H901 W

[11] = tested on: β-lactamase isolated from Pseudomonas aeruginosa 21; assay: Resistance to β-lactamase: amount of unaltered test sample (Table 3); type: biochemical; conditions: initial concentration 100γ/ml
Source text: For example, the relation between the amount (γ/ml) of an unaltered test sample at an initial concentration of the sample 100γ/ml against β-lactamase isolated from Pseudomonas aeruginosa 21 at various dilutions of the enzyme were investigated.

[12] = tested on: Staphylococcus aureus 209P; assay: MIC against bacteria (Table I), strain (16); type: cell-based
Source text: as §1
(16) Staphylococcus aureus 209P

[13] = tested on: Pseudomonas aeruginosa ATCC 8689; assay: MIC against bacteria (Table I), strain (4); type: cell-based; conditions: ATCC8689; (4) Pseudomonas aeruginosa ATCC 8689; read-out: MIC
Source text: as §1
(4) Pseudomonas aeruginosa ATCC 8689

[14] = (15) Micrococcus flavus ATCC 10240, read-out: MIC
[15] = (2) Proteus vulgaris 0X 19US, read-out: MIC
[16] = (1) Proteus vulgaris OXK US, read-out: MIC
[17] = (18) Staphylococcus Onuma, read-out: MIC
[18] = (8) Klebsiella pneumoniae ATCC 10031, read-out: MIC
[19] = (10) Salmonella enteritidis, read-out: MIC

Structure (SMILES) | MIC (Shigella sonnei II 37148) | MIC [1] | MIC [2] | MIC [3, 14] | MIC [5] | MIC [6] | MIC (Proteus vulgaris 0X 19US; [15]) | MIC (Salmonella enteritidis; ENTERITIDIS) | MIC [7] | MIC [8] | MIC [9] | MIC [10] | MIC (Salmonella typhi H901 W) | MIC [13] | MIC (Proteus vulgaris OXK US; [16]) | MIC (Staphylococcus Onuma; [17]) | MIC [4, 18] | MIC (Salmonella enteritidis; [19]) | MIC ([12]; Staphylococcus aureus, 209P) | also measured
Cc1nnc(SCC2=C(C(=O)O)N3C(=O)[C@@H](NC(=O)Cn4cnnn4)[C@H]3SC2)s1 [Cephazolin, reference compound] | 1.56 µg/mL (≈ 3.43 µM) | 1.56 µg/mL (≈ 3.43 µM) | > 100 µg/mL | 0.19 µg/mL (≈ 0.418 µM) | 0.19 µg/mL (≈ 0.418 µM) | 1.56 µg/mL (≈ 3.43 µM) | 25 µg/mL (≈ 55 µM) | 1.56 µg/mL (≈ 3.43 µM) | > 100 µg/mL | 6.25 µg/mL (≈ 13.8 µM) | 0.19 µg/mL (≈ 0.418 µM) | 0.78 µg/mL (≈ 1.72 µM) | 1.56 µg/mL (≈ 3.43 µM) | > 100 µg/mL | – | – | – | – | – | MIC (Proteus vulgaris OXK US; Proteus vulgaris): 3.13 µg/mL (≈ 6.89 µM); MIC (Staphylococcus Onuma; Staphylococcus): 1.56 µg/mL (≈ 3.43 µM); MIC ([4]; Klebsiella pneumoniae): 1.56 µg/mL (≈ 3.43 µM); Amount of unaltered test sample ([11]; β-lactamase dilution ×2): 0 µg/mL; Amount of unaltered test sample ([11]; β-lactamase dilution ×4): 0 µg/mL; Amount of unaltered test sample ([11]; β-lactamase dilution ×8): 0 µg/mL; Amount of unaltered test sample ([11]; β-lactamase dilution ×16): 0 µg/mL; Amount of unaltered test sample ([11]; β-lactamase dilution ×32): 0 µg/mL; Amount of unaltered test sample ([11]; β-lactamase dilution ×64): 9.2 µg/mL; Amount of unaltered test sample ([11]; β-lactamase dilution ×128): 21.5 µg/mL; Amount of unaltered test sample ([11]; β-lactamase dilution ×256): 84.6 µg/mL; Amount of unaltered test sample ([11]; β-lactamase dilution ×512): 96.7 µg/mL; Amount of unaltered test sample ([11]; β-lactamase dilution ×1024): 100 µg/mL; MIC ([12]; (16) Staphylococcus aureus 209P, read-out: MIC): 0.19 µg/mL (≈ 0.418 µM)
O=C(O)Cn1nnnc1SCC1=C(C(=O)O)N2C(=O)[C@@H](NC(=O)[C@H](NC(=O)c3cnccc3O)c3ccccc3)[C@H]2SC1 [Example 15, 7-[D-α-(4-hydroxynicotinoylamido)-α-phenylacetamido]-3-(1-carboxymethyltetrazol-5-yl)-thiomethyl-Δ^3-cephem-4-carboxylic acid] | 3.13 µg/mL (≈ 4.99 µM) | 6.25 µg/mL (≈ 9.97 µM) | 6.25 µg/mL (≈ 9.97 µM) | 25 µg/mL (≈ 39.9 µM) | 0.39 µg/mL (≈ 0.622 µM) | 3.13 µg/mL (≈ 4.99 µM) | 0.39 µg/mL (≈ 0.622 µM) | – | 12.5 µg/mL (≈ 19.9 µM) | < 0.09 µg/mL | 0.39 µg/mL (≈ 0.622 µM) | 12.5 µg/mL (≈ 19.9 µM) | 3.13 µg/mL (≈ 4.99 µM) | 25 µg/mL (≈ 39.9 µM) | 0.19 µg/mL (≈ 0.303 µM) | 25 µg/mL (≈ 39.9 µM) | 6.25 µg/mL (≈ 9.97 µM) | 0.78 µg/mL (≈ 1.24 µM) | 3.13 µg/mL (≈ 4.99 µM) | –
CC(Sc1nnc(SCC2=C(C(=O)O)N3C(=O)[C@@H](NC(=O)[C@H](NC(=O)c4cnccc4O)c4ccccc4)[C@H]3SC2)s1)C(=O)O (stereo partly drawn) [Example 21, 7-[D-α-(4-hydroxynicotinoylamido)-α-phenylacetamido]-3-[5-(1-carboxyethylthio)-1,3,4-thiadiazol-2-yl]thiomethyl-Δ^3-cephem-4-carboxylic acid] | 3.13 µg/mL (≈ 4.54 µM) | 3.13 µg/mL (≈ 4.54 µM) | 12.5 µg/mL (≈ 18.1 µM) | – | 0.39 µg/mL (≈ 0.566 µM) | 1.56 µg/mL (≈ 2.26 µM) | 0.19 µg/mL (≈ 0.276 µM) | 0.39 µg/mL (≈ 0.566 µM) | 12.5 µg/mL (≈ 18.1 µM) | 0.39 µg/mL (≈ 0.566 µM) | 0.39 µg/mL (≈ 0.566 µM) | 6.25 µg/mL (≈ 9.07 µM) | 1.56 µg/mL (≈ 2.26 µM) | 12.5 µg/mL (≈ 18.1 µM) | < 0.09 µg/mL | 6.25 µg/mL (≈ 9.07 µM) | 6.25 µg/mL (≈ 9.07 µM) | – | 1.56 µg/mL (≈ 2.26 µM) | MIC ([3]; Micrococcus flavus): 3.13 µg/mL (≈ 4.54 µM)
CC(C)(Sc1nnc(SCC2=C(C(=O)O)N3C(=O)[C@@H](NC(=O)[C@H](NC(=O)c4cnccc4O)c4ccccc4)[C@H]3SC2)s1)C(=O)O [Example 22, 7-[D-α-(4-hydroxynicotinoylamido)-α-phenylacetamido]-3-[5-(1-carboxy-1-methylethylthio)-1,3,4-thiadiazol-2-yl]thiomethyl-Δ^3-cephem-4-carboxylic acid] | 3.13 µg/mL (≈ 4.45 µM) | 3.13 µg/mL (≈ 4.45 µM) | 6.25 µg/mL (≈ 8.89 µM) | 6.25 µg/mL (≈ 8.89 µM) | 0.39 µg/mL (≈ 0.555 µM) | 1.56 µg/mL (≈ 2.22 µM) | – | – | 12.5 µg/mL (≈ 17.8 µM) | 0.39 µg/mL (≈ 0.555 µM) | 0.78 µg/mL (≈ 1.11 µM) | 12.5 µg/mL (≈ 17.8 µM) | 3.13 µg/mL (≈ 4.45 µM) | 12.5 µg/mL (≈ 17.8 µM) | 0.19 µg/mL (≈ 0.27 µM) | 12.5 µg/mL (≈ 17.8 µM) | 6.25 µg/mL (≈ 8.89 µM) | 0.78 µg/mL (≈ 1.11 µM) | 1.56 µg/mL (≈ 2.22 µM) | MIC (Proteus vulgaris 0X 19US; Proteus vulgaris): 1.56 µg/mL (≈ 2.22 µM)
